These results are taken from patent US11357752B2, “Carolacton and derivatives thereof for use in the treatment of cell proliferation disorders” (Helmholtz-Zentrum für Infektionsforschung GmbH, priority 2017, dated 2022).

The structures appear in SMILES notation. In brackets after ≈: the same amount, converted by molar mass.

Assay [1] relates to L-929 mouse fibroblasts. The assay can be described thus: Cell proliferation assay with mouse fibroblasts (MTT). It is filed as cell-based. How it is done: L-929 mouse fibroblasts from DSMZ cultivated at 37° C. and 10% CO2 in DME medium (high glucose) supplemented with 10% fetal calf serum. Cell culture reagents came from Life Technologies Inc. (GIBCO BRL). […] of serial dilutions of the test compound were given to […] of suspended cells (50,000/mL) in wells of 96-well plates. After 5 days of incubation growth inhibition (IC50) was determined using an MTT assay (Mosman et al., 1983).

Assay [2] concerns the target T1, spFoID (Streptococcus pneumoniae serotype 4, UniProt Q97RI9).
T1 construct: made in house; host or cells: E. coli BL21 (DE3)
The experiment in a line: FoID cyclohydrolase (CYH) enzyme assay. It is filed as biochemical, S. pneumoniae. How it is done:
(6R,S)-5,10-Methylene-5,6,7,8-tetrahydrofolic acid ((6R,S)-5,10-CH2-THF), calcium salt and (6R,S)-5,10-Methenyl-5,6,7,8-tetrahydrofolic acid ((6R,S)-5,10-CH=THF) chloride were purchased from Schircks Laboratories (Bauma, Switzerland) and were used as substrates for FoID dehydrogenase and cyclohydrolase enzyme assays, respectively. Only the R-isomer, which accounts for 50% of (6R,S)-5,10-CH2-THF and (6R,S)-5,10-CH=THF, respectively, is used by the enzyme. (6R,S)-5,10-CH2-THF was dissolved in N2-spargeled basic buffer (50 mM Tris-HCl (pH 8.0), 100 mM β-mercaptoethanol) as described by Sah and Varshney, 2015a (6R,S)-5,10-CH=THF was first dissolved in DMSO as a 100 mM stock solution.
Because FoID is a bifunctional enzyme, dehydrogenase and cyclohydrolase activities were determined for FoID enzyme kinetics, respectively. The dehydrogenase activity of FoID was assayed for its substrate 5,10-CH2-THF and cofactor NADP+ (in the case of MTHFD2, NAD+ was used as cofactor) based on monitoring the formation of 5,10-CH=THF while the cyclohydrolase activity of FoID was determined for its substrate 5,10-CH=THF by monitoring the hydrolysis of 5,10-CH2-THF. The enzyme kinetics for the dehydrogenase activity of all FoIDs except hsMTHFD1_DC were determined at 30° C. in 50 mM Tris-HCl (pH 7.5), 30 mM β-mercaptoethanol. The hsMTHFD1_DC dehydrogenase activity was measured in 25 mM MOPS (pH 7.3), 30 mM β-mercaptoethanol at 30° C. […] To monitor the formation of 5,10-CH=THF, the absorbance of the reaction mixture was monitored at 350 nm in micro UV cuvettes (BRAND, Essex, Connecticut, USA). The concentration of 5,10-CH=THF produced in the reaction was determined using an extinction co-efficient of 0.0249 μM-1 cm-1. […] The consumption of 5,10-CH=THF was measured by recording the absorbance of the reactions at 355 nm using the TECAN Infinite 200 PRO equipped with a monochromator. […] The inhibition constants (Ki) of carolacton on FoID were determined by measuring the apparent Km values when adding certain amounts of carolacton to the enzyme reactions. […]

T1 sequence (Q97RI9 whole entry): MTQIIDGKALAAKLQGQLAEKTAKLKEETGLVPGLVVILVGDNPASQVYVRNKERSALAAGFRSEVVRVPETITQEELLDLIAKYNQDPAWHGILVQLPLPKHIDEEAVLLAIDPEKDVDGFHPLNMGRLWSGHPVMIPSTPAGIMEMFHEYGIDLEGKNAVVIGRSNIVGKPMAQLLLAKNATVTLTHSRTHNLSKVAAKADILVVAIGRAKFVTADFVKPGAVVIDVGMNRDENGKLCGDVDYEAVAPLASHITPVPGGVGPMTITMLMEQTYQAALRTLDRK

The IC80 is the concentration at which the effect reaches the 80% level. One may read the Ki as a dissociation constant, usually derived from enzyme kinetics or from competition with a known ligand. In the case of `CO[C@H](CC(=O)O)[C@@H](C)C(=O)[C@H](C)/C=C(\C)[C@H]1OC(=O)[C@H](O)[C@H](O)/C=C/[C@H](C)CCC[C@@H]1C` [Carolacton, carolacton], the “inhibition of growth of L929 cells reached” value in assay [1] (L929 cells cultivated for 5 days) is reported as at most 50%. In addition, the IC50 in assay [1] (Mus musculus, L929, 120 h, read-out: adapted IC50, inhibition of mouse fibroblast proliferation) stood at 3.5 µg/mL (≈ 7.47 µM); in assay [2] (5 nM enzyme, read-out: IC50, carolacton inhibition on CYH activity), 0.0381 µM. The 80% effect concentration (IC80) in assay [2] (5 nM enzyme, read-out: IC80, carolacton inhibition on CYH activity) was found to be 0.101 µM. In addition, in assay [2] (vs 5,10-CH=THF, read-out: Ki (5,10-CH═THF), carolacton inhibition on CYH activity), the Ki came out at 0.0381 µM.
